The text below walks through data of patent publication US12479847B2 (DANA-FARBER CANCER INSTITUTE, INC., priority 2019, dated 2025).

Read-outs that look alike come from different tables or passages of the source.

Assay in all cases: KINOMEscan (ScanMAX) kinase profiling
Holding throughout (format): binding

The target of assay [1] is T1, panel of 468 kinases (Homo sapiens, UniProt P00519, Y253F).
T1 construct: purchased KINOMEscan (ScanMAX) service
Particulars: ABL1(Y253F)-phosphorylated; 1 μM; read-out: % control.

The target in assay [2] is T2, panel of 468 kinases (Homo sapiens, UniProt P07949, V804M).
T2 construct: purchased KINOMEscan (ScanMAX) service
Particulars: RET(V804M); 1 μM; read-out: % control.

In assay [3] the target is T3, panel of 468 kinases (Homo sapiens, UniProt P08581, M1250T).
T3 construct: purchased KINOMEscan (ScanMAX) service
To be noted: MET(M1250T); 1 μM; read-out: % control.

The target of assay [4] is T4, panel of 468 kinases (Homo sapiens, UniProt P15056).
T4 construct: purchased KINOMEscan (ScanMAX) service
To be noted: BRAF; 1 μM; read-out: % control.

Assay [5] has as its target T5, panel of 468 kinases (Homo sapiens, UniProt P36888, D835V).
T5 construct: purchased KINOMEscan (ScanMAX) service
T5 sequence (P36888 27-993 D835V): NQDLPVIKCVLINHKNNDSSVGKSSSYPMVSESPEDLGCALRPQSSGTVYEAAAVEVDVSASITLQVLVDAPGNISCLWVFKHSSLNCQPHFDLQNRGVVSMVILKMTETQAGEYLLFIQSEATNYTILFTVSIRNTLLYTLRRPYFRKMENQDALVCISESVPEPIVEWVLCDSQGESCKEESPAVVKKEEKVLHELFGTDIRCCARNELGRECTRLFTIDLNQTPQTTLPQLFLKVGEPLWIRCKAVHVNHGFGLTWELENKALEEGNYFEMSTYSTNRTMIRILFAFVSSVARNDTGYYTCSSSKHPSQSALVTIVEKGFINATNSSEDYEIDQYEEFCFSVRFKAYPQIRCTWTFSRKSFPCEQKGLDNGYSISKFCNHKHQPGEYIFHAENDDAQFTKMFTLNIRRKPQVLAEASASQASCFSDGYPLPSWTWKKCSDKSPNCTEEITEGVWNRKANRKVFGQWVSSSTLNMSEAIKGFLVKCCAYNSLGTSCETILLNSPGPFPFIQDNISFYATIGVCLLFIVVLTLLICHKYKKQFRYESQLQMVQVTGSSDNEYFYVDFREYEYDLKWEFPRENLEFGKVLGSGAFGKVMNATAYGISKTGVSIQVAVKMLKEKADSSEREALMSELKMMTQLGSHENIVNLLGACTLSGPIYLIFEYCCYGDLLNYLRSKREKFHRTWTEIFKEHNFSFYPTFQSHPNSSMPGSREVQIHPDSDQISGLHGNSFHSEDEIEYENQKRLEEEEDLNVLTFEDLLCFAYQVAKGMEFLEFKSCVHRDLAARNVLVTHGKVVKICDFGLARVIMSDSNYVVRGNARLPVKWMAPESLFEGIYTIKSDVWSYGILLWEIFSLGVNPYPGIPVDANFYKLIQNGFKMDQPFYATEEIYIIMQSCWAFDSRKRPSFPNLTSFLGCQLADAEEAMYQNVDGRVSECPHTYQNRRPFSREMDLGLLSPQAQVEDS
Particulars: FLT3(D835V); 1 μM; read-out: % control.

The target in assay [6] is T6, panel of 468 kinases (Homo sapiens, UniProt P42336, E545K).
T6 construct: purchased KINOMEscan (ScanMAX) service
Particulars: PIK3CA(E545K); 1 μM; read-out: % control.

The target in assay [7] is T7, panel of 468 kinases (Homo sapiens, UniProt P51812).
T7 construct: purchased KINOMEscan (ScanMAX) service
Particulars: 1 μM, read-out: % control.

Assay [8] has as its target T8, panel of 468 kinases (Homo sapiens, UniProt Q02750).
T8 construct: purchased KINOMEscan (ScanMAX) service
To be noted: MEK1; 1 μM; read-out: % control.

For assay [9], the target named is T9, panel of 468 kinases (Homo sapiens, UniProt Q14012).
T9 construct: purchased KINOMEscan (ScanMAX) service
To be noted: CAMK1; 1 μM; read-out: % control.

Assay [10] concerns the target T10, panel of 468 kinases (Homo sapiens, UniProt Q96L34).
T10 construct: purchased KINOMEscan (ScanMAX) service
T10 sequence (Q96L34 1-752): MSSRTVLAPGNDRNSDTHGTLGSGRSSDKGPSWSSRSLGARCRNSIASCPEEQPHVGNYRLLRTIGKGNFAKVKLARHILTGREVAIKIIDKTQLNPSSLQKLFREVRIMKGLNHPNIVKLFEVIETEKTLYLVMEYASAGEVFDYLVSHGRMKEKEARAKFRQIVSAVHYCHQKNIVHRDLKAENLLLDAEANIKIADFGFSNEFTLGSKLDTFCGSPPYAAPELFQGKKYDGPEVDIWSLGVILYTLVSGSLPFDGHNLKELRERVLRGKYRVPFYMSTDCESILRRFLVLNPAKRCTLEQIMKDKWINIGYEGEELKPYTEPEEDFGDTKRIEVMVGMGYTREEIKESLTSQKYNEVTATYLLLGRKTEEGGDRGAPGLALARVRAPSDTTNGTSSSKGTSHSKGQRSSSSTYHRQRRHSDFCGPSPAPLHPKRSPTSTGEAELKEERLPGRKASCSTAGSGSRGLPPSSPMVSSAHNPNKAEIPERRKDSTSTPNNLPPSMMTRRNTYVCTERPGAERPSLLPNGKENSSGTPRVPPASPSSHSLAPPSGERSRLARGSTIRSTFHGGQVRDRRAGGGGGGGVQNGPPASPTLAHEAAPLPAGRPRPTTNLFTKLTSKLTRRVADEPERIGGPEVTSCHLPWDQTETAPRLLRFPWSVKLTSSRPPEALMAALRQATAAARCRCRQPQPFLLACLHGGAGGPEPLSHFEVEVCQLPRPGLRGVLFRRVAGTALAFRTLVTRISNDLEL
Particulars: MARK4; 1 μM; read-out: % control.

Assay [11] deals with T11, panel of 468 kinases (Homo sapiens, UniProt Q96Q40).
T11 construct: purchased KINOMEscan (ScanMAX) service
To be noted: PFTAIRE2; 1 μM; read-out: % control.

Assay [12] has as its target T12, panel of 468 kinases (Homo sapiens, UniProt Q99558).
T12 construct: purchased KINOMEscan (ScanMAX) service
Particulars: NIK; 1 μM; read-out: % control.

T2 sequence (P07949 29-1114 V804M): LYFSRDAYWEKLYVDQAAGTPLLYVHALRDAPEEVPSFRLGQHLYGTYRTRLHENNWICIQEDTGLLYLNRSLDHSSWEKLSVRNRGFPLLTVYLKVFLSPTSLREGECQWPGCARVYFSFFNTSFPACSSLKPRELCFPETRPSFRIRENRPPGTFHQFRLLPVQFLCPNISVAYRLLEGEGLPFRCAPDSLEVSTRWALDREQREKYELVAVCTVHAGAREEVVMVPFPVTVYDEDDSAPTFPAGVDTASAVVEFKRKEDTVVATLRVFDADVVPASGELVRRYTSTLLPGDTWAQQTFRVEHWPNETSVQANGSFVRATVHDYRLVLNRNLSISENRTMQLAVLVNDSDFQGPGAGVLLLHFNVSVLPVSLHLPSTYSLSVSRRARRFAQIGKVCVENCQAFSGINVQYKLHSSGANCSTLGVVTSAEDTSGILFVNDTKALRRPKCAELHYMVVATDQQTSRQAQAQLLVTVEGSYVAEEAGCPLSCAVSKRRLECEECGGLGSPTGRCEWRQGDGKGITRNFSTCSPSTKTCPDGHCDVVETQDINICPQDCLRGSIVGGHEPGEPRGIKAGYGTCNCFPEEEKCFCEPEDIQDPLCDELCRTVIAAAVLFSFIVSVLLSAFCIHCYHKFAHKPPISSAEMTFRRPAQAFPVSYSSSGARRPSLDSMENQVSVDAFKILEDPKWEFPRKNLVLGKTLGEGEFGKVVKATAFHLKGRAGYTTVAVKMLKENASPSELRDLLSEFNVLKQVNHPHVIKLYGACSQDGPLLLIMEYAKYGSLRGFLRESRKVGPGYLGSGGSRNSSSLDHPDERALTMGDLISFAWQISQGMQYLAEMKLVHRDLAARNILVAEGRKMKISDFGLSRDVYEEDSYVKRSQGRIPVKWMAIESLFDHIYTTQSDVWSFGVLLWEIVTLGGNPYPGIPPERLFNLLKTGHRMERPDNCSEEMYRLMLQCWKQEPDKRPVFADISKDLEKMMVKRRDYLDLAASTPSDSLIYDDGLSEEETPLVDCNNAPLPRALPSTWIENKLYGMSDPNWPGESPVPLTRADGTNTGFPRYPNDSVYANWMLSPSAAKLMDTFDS
T7 sequence (P51812 whole entry): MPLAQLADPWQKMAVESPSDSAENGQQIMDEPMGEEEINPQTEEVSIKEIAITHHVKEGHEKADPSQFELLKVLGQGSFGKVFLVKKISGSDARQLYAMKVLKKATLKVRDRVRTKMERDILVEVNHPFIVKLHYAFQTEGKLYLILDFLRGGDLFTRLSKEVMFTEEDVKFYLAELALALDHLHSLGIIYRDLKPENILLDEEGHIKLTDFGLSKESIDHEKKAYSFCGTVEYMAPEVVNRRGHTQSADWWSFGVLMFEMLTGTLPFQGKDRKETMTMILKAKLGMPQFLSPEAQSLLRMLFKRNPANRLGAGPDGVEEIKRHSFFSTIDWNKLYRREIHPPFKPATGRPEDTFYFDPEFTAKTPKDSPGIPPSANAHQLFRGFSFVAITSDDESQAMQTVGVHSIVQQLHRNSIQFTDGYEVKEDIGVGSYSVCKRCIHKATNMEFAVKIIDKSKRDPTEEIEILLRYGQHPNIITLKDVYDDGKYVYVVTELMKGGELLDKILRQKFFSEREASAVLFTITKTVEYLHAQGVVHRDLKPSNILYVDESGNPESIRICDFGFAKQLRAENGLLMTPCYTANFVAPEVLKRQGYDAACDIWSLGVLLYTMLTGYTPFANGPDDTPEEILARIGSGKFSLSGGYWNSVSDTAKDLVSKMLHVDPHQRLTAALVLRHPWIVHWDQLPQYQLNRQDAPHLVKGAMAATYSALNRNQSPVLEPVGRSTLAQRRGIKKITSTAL
T11 sequence (Q96Q40 whole entry): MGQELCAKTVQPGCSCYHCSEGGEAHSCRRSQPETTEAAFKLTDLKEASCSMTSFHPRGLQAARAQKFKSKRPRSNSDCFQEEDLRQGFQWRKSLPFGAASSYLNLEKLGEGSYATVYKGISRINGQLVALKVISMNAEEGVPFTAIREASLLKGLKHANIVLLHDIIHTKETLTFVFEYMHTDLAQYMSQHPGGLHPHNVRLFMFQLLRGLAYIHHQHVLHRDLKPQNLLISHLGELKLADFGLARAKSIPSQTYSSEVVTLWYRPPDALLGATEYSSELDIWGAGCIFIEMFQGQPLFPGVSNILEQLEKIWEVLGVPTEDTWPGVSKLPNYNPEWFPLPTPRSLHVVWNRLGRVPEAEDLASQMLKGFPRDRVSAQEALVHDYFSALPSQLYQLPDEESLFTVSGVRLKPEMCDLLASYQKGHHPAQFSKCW
T6 sequence (P42336 whole entry E545K): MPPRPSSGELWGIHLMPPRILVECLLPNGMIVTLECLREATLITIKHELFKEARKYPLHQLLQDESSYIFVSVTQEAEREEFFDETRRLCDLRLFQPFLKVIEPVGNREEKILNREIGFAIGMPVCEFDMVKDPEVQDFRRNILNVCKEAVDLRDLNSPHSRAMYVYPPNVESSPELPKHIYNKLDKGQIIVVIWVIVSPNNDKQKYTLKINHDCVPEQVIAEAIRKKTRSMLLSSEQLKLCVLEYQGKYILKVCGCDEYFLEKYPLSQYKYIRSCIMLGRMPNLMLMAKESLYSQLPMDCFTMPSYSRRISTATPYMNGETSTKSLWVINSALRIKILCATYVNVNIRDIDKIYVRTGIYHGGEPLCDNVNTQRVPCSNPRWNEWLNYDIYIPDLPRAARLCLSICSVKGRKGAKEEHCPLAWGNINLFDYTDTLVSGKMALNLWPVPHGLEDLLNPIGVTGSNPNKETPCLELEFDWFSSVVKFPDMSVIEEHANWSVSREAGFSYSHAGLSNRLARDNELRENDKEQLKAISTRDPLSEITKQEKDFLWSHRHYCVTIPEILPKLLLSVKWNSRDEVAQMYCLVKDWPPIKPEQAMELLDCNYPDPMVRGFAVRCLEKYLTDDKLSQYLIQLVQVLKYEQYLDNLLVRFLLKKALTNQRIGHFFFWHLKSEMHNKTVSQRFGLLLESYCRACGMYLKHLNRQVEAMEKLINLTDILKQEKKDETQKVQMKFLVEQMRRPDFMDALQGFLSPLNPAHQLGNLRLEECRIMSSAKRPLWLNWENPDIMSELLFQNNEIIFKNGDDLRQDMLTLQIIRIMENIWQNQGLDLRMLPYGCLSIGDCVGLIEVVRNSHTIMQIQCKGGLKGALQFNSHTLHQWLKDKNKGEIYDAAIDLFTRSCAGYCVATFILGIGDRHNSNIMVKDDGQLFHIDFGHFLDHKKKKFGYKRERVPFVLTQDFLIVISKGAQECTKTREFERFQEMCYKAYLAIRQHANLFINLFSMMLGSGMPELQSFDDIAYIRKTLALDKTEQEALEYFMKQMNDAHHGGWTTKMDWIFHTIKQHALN
T3 sequence (P08581 25-1390 M1250T): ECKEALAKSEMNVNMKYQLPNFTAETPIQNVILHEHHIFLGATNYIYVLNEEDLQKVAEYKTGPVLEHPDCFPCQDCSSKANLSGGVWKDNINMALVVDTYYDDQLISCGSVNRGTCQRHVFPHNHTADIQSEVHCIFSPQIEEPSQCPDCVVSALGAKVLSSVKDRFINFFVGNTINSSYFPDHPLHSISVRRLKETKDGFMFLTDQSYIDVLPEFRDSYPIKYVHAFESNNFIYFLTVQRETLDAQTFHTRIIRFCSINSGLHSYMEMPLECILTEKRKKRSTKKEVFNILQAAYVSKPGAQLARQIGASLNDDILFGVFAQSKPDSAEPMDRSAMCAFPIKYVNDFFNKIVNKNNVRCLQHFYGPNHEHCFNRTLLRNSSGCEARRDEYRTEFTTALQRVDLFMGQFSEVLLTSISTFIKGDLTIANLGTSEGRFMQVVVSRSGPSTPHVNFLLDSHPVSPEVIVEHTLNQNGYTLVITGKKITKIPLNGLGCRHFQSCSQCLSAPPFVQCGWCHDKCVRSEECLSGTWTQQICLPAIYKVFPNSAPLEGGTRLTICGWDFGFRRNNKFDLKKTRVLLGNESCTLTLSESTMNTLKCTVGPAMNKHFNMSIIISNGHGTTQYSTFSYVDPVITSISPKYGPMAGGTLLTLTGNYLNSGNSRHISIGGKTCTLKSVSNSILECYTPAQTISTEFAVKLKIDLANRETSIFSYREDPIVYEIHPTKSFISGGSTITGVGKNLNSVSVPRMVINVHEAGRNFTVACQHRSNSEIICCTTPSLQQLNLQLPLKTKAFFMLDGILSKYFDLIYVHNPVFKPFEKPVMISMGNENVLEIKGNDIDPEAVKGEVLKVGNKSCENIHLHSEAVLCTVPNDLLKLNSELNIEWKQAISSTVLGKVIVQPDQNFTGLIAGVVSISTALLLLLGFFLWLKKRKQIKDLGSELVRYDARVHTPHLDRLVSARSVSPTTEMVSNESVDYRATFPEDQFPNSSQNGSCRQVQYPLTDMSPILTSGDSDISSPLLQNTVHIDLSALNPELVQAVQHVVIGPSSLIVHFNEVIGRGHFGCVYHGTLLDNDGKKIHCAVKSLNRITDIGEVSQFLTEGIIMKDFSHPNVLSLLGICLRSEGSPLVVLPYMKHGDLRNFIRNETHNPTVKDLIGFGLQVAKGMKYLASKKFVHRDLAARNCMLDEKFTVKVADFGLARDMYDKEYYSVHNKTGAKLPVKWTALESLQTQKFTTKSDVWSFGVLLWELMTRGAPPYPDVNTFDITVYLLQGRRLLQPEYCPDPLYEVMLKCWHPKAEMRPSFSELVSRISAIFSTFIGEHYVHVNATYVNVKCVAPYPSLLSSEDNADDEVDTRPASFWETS
T8 sequence (Q02750 whole entry): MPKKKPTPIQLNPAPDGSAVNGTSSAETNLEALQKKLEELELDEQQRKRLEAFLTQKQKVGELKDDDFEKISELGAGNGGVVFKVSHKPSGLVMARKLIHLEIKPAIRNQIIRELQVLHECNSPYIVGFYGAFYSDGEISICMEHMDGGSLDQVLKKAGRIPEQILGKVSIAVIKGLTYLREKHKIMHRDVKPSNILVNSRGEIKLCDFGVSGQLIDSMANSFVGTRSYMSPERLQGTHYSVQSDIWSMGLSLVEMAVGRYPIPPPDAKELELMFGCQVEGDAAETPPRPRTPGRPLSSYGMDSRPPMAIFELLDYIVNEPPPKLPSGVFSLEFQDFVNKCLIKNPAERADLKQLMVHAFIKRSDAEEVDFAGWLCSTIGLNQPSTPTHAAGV

In the case of `CNc1nc(Nc2ccc(S(=O)(=O)N3CCC(N4CCOCC4)CC3)cc2OC)nc2[nH]cc(Cl)c12` [Compound 12, 5-chloro-N2-(2-methoxy-4-((4-morpholinopiperidin-1-yl)sulfonyl)phenyl)-N4-methyl-7H-pyrrolo[2,3-d]pyrimidine-2,4-diamine], the remaining binding at 1 µM on panel of 468 kinases [1] is 51%; at panel of 468 kinases [2], 96%; on panel of 468 kinases [3], 100%; on panel of 468 kinases [4], 93%; at panel of 468 kinases [5], 72%; at panel of 468 kinases [6], 89%. Further, the remaining binding at 1 µM at panel of 468 kinases [7] (RSK2(Kin.Dom.1-N-terminal)) amounted to 88%; at panel of 468 kinases [7] (RSK2(Kin.Dom.2-C-terminal)) it was 28%; at panel of 468 kinases [8], 99%; on panel of 468 kinases [9], 100%; on panel of 468 kinases [10] it was 98%; on panel of 468 kinases [11], 100%. On panel of 468 kinases [12], the remaining binding at 1 µM was found to be 9.2%.
With `CNc1nc(Nc2ccc(P3(=O)CCN(C4CCOCC4)CC3)cc2OC)nc2[nH]cc(Cl)c12` [Compound 77, 4-(4-((5-chloro-4-(methylamino)-7H-pyrrolo[2,3-d]pyrimidin-2-yl)amino)-3-methoxyphenyl)-1-(tetrahydro-2H-pyran-4-yl)-1,4-azaphosphinane 4-oxide], the remaining binding at 1 µM is 53% on panel of 468 kinases [1]; 97% on panel of 468 kinases [2]; 100% at panel of 468 kinases [3]; 97% at panel of 468 kinases [4]; 9.7% on panel of 468 kinases [5]; 94% at panel of 468 kinases [6]. In addition, the remaining binding at 1 µM on panel of 468 kinases [7] (RSK2(Kin.Dom.1-N-terminal)) is 70%; on panel of 468 kinases [7] (RSK2(Kin.Dom.2-C-terminal)) it was 34%; on panel of 468 kinases [8] it was 96%; at panel of 468 kinases [9], 67%; at panel of 468 kinases [10] it was 97%; on panel of 468 kinases [11] it was 100%. The remaining binding at 1 µM on panel of 468 kinases [12] came out at 16%.
Regarding `CNc1nc(Nc2ccc(C(=O)N3CCC(N4CCOCC4)CC3)c3c2OCO3)nc2[nH]cc(Cl)c12` [Compound 75, (7-((5-chloro-4-(methylamino)-7H-pyrrolo[2,3-d]pyrimidin-2-yl)amino)benzo[d][1,3]dioxol-4-yl)(4-morpholinopiperidin-1-yl)methanone], the remaining binding at 1 µM at panel of 468 kinases [1] was found to be 53%; at panel of 468 kinases [2], 33%; on panel of 468 kinases [3] it was 100%; at panel of 468 kinases [4], 100%; on panel of 468 kinases [5], 1.8%; on panel of 468 kinases [6] it was 100%. For the same molecule, the remaining binding at 1 µM on panel of 468 kinases [7] (RSK2(Kin.Dom.1-N-terminal)) came out at 71%; on panel of 468 kinases [7] (RSK2(Kin.Dom.2-C-terminal)), 31%; on panel of 468 kinases [8] it was 98%; at panel of 468 kinases [9], 75%; at panel of 468 kinases [10], 96%; on panel of 468 kinases [11], 100%. In addition, the remaining binding at 1 µM on panel of 468 kinases [12] turned out to be 0%.
